According to US20040215284A1, “Treatment of neuromuscular dysfunction of the lower urinary tract with selective mGlu5 antagonists” (Recordati S.A., priority 2003, published 2004):

Assays:
[1] = molecular target: T1, mGlu1 (Rattus norvegicus, UniProt P23385); assay: Radioligand binding assay at mGlu1, [3H]quisqualic acid, rat cerebellum membranes; conditions: for Ki: [3H]quisqualic acid
T1 construct: pellets from rat cerebellum were resuspended; from tissue; host or cells: rat cerebellum membranes (male Sprague Dawley)
T1 sequence (P23385 19-1199): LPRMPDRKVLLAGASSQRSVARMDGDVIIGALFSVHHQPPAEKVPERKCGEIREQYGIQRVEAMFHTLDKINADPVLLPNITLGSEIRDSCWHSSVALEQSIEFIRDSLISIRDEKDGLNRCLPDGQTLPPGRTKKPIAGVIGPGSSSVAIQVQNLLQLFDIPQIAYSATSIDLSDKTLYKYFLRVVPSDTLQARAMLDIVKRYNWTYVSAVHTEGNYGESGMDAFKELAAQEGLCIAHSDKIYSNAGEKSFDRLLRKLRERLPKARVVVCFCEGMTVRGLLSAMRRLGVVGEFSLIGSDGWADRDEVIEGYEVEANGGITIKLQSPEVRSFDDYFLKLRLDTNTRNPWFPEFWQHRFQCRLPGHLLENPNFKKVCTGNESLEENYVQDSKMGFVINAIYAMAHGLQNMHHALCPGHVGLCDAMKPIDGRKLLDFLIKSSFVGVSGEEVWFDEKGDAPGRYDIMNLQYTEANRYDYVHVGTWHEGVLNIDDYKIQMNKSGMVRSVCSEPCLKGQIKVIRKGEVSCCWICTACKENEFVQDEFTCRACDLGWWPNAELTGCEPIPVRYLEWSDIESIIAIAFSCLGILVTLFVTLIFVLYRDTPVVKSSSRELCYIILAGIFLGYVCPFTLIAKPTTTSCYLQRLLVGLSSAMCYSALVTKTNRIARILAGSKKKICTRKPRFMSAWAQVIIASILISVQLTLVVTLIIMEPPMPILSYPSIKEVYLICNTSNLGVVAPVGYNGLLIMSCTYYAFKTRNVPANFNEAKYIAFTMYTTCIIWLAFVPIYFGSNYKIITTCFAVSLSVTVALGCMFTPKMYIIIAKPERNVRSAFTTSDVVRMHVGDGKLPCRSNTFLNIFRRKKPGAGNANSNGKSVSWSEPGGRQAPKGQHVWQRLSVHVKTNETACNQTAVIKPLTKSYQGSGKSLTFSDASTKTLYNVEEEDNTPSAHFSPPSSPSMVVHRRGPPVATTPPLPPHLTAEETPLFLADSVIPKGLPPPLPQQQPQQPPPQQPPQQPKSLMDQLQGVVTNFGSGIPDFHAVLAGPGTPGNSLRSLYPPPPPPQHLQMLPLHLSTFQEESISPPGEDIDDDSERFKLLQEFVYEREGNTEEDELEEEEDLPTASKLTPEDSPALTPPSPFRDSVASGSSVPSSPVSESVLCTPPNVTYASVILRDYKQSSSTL
Procedure: (§1) Male Sprague Dawley rats (200-300 g, Charles River, Italy) were killed by cervical dislocation and the forebrain (cortex, striatum and hippocampus) and cerebellum were homogenized (2×20 sec) in 50 vols of cold 50 mM Tris buffer pH 7.4, using a Politron homogenizer (Kinematica). […] The final pellets were frozen and stored at −80° C. until use.
i) mGlu1: On experimental section pellets from rat cerebellum were resuspended in 150-200 vols of 20 mM N-2-hydroxyethylpiperazine-N′-2-ethanesulfonic acid (HEPES), 2 mM MgCl2, 2 mM CaCl2, pH 7.4.
(§2) The filters were then washed with cold buffer and the radioactivity retained on the filters was counted by liquid scintillation spectrometry.
(§3) Data were expressed as the mean of pKi(−log Ki)±SE.

[2] = molecular target: mGlu4a (Homo sapiens, UniProt Q14833); conditions: literature, functional models; cited from earlier work
mGlu4a, sequence (Q14833 33-912): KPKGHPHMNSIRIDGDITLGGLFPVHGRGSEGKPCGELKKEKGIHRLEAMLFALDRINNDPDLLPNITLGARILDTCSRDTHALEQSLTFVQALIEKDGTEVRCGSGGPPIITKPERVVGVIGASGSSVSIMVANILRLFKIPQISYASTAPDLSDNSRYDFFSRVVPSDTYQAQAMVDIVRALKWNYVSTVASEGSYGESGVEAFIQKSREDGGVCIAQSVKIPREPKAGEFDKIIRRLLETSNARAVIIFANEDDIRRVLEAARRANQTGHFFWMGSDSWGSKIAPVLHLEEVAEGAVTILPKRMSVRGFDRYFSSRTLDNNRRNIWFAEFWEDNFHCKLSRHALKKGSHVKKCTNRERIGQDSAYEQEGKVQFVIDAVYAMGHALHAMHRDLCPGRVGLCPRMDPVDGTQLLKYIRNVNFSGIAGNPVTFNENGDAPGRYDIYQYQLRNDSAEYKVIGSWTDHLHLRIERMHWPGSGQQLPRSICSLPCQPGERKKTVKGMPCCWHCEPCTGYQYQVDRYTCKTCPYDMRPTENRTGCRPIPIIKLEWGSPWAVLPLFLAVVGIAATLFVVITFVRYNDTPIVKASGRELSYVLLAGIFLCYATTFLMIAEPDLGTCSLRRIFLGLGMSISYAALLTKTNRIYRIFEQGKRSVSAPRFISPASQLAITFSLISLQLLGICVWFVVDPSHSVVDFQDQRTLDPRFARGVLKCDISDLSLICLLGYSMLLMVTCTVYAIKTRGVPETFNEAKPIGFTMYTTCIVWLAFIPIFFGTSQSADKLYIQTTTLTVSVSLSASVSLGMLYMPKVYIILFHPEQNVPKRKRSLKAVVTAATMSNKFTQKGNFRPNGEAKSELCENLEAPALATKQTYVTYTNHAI

[3] = system: rhythmic bladder-voiding contractions in anaesthetised rats; assay: Rhythmic bladder-voiding contractions induced by bladder filling in anaesthetised rats; format: in vivo, rat; conditions: for BLADDER CONTRACTIONS quiescence time: mean ± SEM; for activity as inhibitors of isovolumic voiding contractions (in words) / ED10min (extrapolated dose inducing 10 min of bladder quiescence): i.v.; for activity as inhibitors of isovolumic voiding contractions (in words): anaesthetised rats; for ED10min (extrapolated dose inducing 10 min of bladder quiescence): linear regression
Procedure: The animals were housed with free access to food and water and maintained on a forced 12-hour alternating light-dark cycle at 22-24° C. for at least one week, except during the experiment. […] The catheter was tied in place with a ligature around the external urethral orifice and was connected to conventional pressure transducers (Statham P23 ID/P23 XL). […] The bladder was then filled via the recording catheter by incremental volumes of warm (37° C.) saline until reflex bladder-voiding contractions occurred (usually 0.8-1.5 ml). For intravenous injection of bioactive compounds, PE 50 polyethylene tubing filled with physiological saline was inserted into the jugular vein.
From the cystometrogram, the number of contractions recorded 15 minutes before (basal values) and after treatment, as well as the mean amplitude of these contractions (mean height of the peaks in mmHg), were evaluated.
Morphine was tested, too, as a reference standard for this model.

[4] = molecular target: mGlu5a (Homo sapiens, UniProt P41594); conditions: literature, functional models; cited from earlier work
[5] = molecular target: Group II (mGlu2 + mGlu3) receptors; assay: Radioligand binding assay at Group II (mGlu2+mGlu3), [3H]LY341495, rat forebrain membranes; conditions: rat forebrain; for Ki: [3H]LY341495
Procedure: as §1
iii) Group II (mGlu2+mGlu3): On experimental section pellets from rat forebrain were resuspended in 250 vols of 20 mM HEPES, 2 mM MgCl2, 2 mM CaCl2, pH 7.4. The membranes were incubated in a final volume of 1 ml for 30 min at 0° C. with 1 nM [^3H]LY341495 in the absence or presence of competing drugs.
as §2, §3

[6] = molecular target: mGlu5 (Rattus norvegicus, UniProt P31424); conditions: rat forebrain; for Ki: read-out: mGlu5 Ki, [3H]MPEP
mGlu5, sequence (P31424 21-1203): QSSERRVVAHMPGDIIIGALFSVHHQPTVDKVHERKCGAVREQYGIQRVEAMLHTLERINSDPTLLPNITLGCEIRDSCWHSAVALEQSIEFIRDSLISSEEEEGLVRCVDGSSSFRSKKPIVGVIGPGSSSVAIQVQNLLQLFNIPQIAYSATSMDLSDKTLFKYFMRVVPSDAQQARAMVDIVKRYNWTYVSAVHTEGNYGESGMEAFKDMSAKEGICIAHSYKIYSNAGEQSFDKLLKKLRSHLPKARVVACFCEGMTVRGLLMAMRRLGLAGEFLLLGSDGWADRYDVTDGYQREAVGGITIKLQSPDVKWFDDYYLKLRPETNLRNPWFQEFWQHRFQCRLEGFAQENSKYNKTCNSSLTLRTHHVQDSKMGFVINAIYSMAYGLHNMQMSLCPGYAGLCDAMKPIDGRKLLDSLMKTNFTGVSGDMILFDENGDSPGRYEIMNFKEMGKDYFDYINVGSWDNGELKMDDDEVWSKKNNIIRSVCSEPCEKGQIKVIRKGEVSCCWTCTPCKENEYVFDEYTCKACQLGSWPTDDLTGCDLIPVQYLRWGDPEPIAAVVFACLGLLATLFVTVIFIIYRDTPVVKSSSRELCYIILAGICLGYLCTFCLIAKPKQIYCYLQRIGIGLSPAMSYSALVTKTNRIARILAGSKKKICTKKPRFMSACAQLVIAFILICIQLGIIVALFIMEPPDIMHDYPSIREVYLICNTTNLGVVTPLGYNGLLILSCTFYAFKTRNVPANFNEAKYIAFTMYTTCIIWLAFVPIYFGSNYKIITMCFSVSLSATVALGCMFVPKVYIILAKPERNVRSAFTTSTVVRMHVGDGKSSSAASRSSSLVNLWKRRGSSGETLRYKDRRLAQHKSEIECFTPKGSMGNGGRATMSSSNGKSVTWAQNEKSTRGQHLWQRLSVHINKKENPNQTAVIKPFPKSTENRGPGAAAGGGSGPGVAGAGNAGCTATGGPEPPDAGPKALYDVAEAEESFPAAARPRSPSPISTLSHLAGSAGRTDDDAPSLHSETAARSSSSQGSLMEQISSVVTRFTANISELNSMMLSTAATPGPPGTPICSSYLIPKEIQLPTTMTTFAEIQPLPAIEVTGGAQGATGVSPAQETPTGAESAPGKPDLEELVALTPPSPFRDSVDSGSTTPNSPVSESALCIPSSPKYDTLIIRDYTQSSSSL
Procedure: as §1
ii) mGlu5: On experimental section pellets from rat forebrain were resuspended in 100 vols of 20 mM HEPES, 2 mM MgCl2, 2 mM CaCl2, pH 7.4.
as §2, §3

[7] = molecular target: mGlu2 (Homo sapiens, UniProt Q14416); conditions: cited from earlier work
[8] = molecular target: mGlu1a (Homo sapiens, UniProt Q13255); conditions: literature, functional models; cited from earlier work
mGlu1a, sequence (Q13255 19-1194): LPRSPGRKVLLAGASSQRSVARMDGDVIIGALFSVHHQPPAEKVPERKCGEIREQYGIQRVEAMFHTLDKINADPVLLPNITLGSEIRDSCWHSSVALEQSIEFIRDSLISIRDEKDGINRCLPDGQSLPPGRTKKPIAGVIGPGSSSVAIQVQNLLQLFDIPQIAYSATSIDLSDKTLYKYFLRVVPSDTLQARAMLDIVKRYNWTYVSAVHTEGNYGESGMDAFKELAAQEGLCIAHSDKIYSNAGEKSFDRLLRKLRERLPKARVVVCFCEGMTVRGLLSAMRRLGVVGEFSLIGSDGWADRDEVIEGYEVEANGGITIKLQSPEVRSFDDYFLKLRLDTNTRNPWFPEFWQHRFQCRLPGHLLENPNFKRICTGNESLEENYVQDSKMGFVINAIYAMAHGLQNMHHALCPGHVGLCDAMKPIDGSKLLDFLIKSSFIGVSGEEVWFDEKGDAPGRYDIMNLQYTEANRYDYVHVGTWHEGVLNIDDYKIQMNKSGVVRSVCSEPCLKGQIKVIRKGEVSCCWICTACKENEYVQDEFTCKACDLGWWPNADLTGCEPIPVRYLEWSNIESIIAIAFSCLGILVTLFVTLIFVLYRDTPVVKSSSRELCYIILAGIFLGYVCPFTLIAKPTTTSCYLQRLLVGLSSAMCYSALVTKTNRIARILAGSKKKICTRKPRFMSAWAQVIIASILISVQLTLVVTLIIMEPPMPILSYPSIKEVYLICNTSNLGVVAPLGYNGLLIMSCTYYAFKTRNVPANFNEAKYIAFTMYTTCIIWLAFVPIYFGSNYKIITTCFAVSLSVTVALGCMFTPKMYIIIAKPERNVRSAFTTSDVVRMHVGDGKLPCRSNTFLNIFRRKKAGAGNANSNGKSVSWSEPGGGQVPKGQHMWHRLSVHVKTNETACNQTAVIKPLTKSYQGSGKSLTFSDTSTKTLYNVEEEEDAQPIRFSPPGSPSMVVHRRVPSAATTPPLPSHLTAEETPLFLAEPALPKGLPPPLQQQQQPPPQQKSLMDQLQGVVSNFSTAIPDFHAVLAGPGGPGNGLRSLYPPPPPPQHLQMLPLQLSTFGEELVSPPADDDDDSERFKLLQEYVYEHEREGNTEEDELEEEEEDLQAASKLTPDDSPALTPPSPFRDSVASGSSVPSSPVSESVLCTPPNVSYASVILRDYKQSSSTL

[9] = system: conscious rats with bladder infused with dilute acetic acid; assay: Cystometric parameters in conscious rats with bladder infused with dilute acetic acid; format: in vivo, rat; conditions: 10 mg/kg oral, bladder infused with 0.2% acetic acid
Procedure: The method used was that described in Example 4. The basal BVC and MP values were evaluated as the mean of the values observed in the cystometrograms recorded over an initial period of 30-60 minutes. At this point in the test, the infusion was stopped and the test compounds were administered orally via gastric intubation. Infusion into the bladder was resumed, replacing the warm saline solution with dilute acetic acid (0.2%) and the variations in BVC and MP recorded were evaluated as mean values obtained in the cystometrograms 1, 2, 3 and 4 hours after the treatment, relative to the basal values. The compounds were administered in a volume of 2 ml/kg and the groups of control animals received the same amount of vehicle (0.5% Methocel in water) orally.
The statistical analysis of the data was performed as reported in Example 4.

[10] = molecular target: mGlu8 (Homo sapiens, UniProt O00222); conditions: literature, functional models; cited from earlier work
[11] = molecular target: mGlu7 (Homo sapiens, UniProt Q14831); conditions: literature, functional models; cited from earlier work
[12] = system: conscious rats; assay: Cystometric parameters in conscious rats (bladder infused with saline); format: in vivo, rat
Procedure: Male Sprague-Dawley rats [Crl: CD® (SD) IGS BR] of 300-400 g b.w. supplied by Charles River Italia were used. The animals were housed with free access to food and water and maintained on a forced 12-hour-light/12-hour-dark cycle at 22-24° C. of temperature, except during the experiment. To quantify urodynamic parameters in conscious rats, cystometrographic studies were performed according to the procedure previously reported (Guarneri et al., Pharmacol. Res. 24: 75, 1991).
Briefly, the rats were anaesthetized by intraperitoneal administration of 3 ml/kg of Equithensin solution (pentobarbital 30 mg/kg and chloral hydrate 125 mg/kg) and placed in a supine position. An approximately 10 mm long midline incision was made in the shaved and cleaned abdominal wall. The urinary bladder was gently freed from adhering tissues, emptied and then cannulated via an incision in the bladder body, using a polyethylene cannula (0.58 mm internal diameter, 0.96 mm external diameter) which was permanently sutured with silk thread. For intravenous bolus injection, a similar polyethylene tubing filled with physiological saline containing sodium heparin (40 I.U./ml) was inserted into the jugular vein. The cannulae were exteriorized through a subcutaneous tunnel in the retroscapular area, where they were connected to a plastic adapter in order to avoid the risk of removal by the animal. For drug testing, the rats were utilized one day after implantation.
On the day of the experiment, the rats were placed in modified Bollman cages, i.e., restraining cages that were large enough to permit the rats to adopt a normal crouched posture, but narrow enough to prevent turning around. After a stabilization period of about 20 minutes, the free tip of the bladder cannula was connected through a T-shaped tube to a pressure transducer (Statham P23XL) and to a peristaltic pump (Gilson minipuls 2) for continuous infusion of a warm (37° C.) saline solution into the urinary bladder, at a constant rate of 0.1 ml/minute. The intraluminal-pressure signal during infusion of saline into the bladder was continuously recorded on a polygraph (Rectigraph-8K San-ei with BM614/2 amplifier from Biomedica Mangoni) and, from the cystometrogram, two urodynamic parameters were evaluated: bladder volume capacity (BVC) and micturition pressure (MP). BVC (in ml) is defined as the volume of saline infused into the bladder necessary to induce detrusor contraction followed by micturition. MP (in mmHg) is defined as the maximal intravesical pressure caused by contraction during micturition. Basal BVC and MP values were evaluated as the mean of the values observed in the cystometrograms recorded in an initial period of 30-60 minutes. At this point in the assay, the infusion was interrupted and the test compounds were administered either intravenously by the jugular catheter or orally by a stomach tube. The bladder infusion restarted and changes in BVC and MP were evaluated from the mean values obtained in the cystometrograms observed during 1, 2, 3, 4, and 5 hours after treatment. The compounds were administered in a volume of 1 ml/kg and 2 ml/kg for intravenous and oral administration routes, respectively. Groups of control animals received the same amount of vehicle corresponding to a solution of 8% dimethylformamide and 8% Tween 80 in water (final concentrations) for intravenous, or a solution of 0.5% methocel in water for oral route.
Under the given test conditions, measurement of BVC is equivalent to measurement of interval time between micturitions.
All data were expressed as mean±standard error. The percent changes of BVC and MP relative to the basal values, as well as Δ values (difference in ml or in mmHg) of BVC and MP (BVC or MP at time “x” minus basal value), were also evaluated for each rat/time. In the figures, data were reported as percentage changes relative to basal values. […]

[13] = molecular target: mGlu6 (Homo sapiens, UniProt O15303); conditions: literature, functional models; cited from earlier work

Structure (SMILES): NC1(C(=O)O)CCc2cc(C(=O)O)ccc21 (centres unmarked) [AIDA]
- Ki [1]: > 10 µM
- IC50 [2]: > 1000 µM
- BLADDER CONTRACTIONS quiescence time ([3]; 1000 μg/kg i.v.): 1.50 ± 0.54 min
- BLADDER CONTRACTIONS quiescence time ([3]; 3000 μg/kg i.v.): 2.33 ± 1.44 min
- BLADDER CONTRACTIONS quiescence time ([3]; 10000 μg/kg i.v.): 2.35 ± 0.50 min
- activity as inhibitors of isovolumic voiding contractions (in words) [3]: inactive
- ED10min (extrapolated dose inducing 10 min of bladder quiescence) [3]: >10 mg/kg
- IC50 [4]: > 1000 µM
- Ki [5]: > 10 µM
- Ki [6]: > 10 µM
- mGlu2 activity (in words) ([7]; literature (Moroni et al. 1997)): Weak

Structure (SMILES): N[C@](CC1c2ccccc2Oc2ccccc21)(C(=O)O)[C@H]1C[C@@H]1C(=O)O [LY 341495]
- BLADDER CONTRACTIONS quiescence time ([3]; 100 μg/kg i.v.): 2.45 ± 1.39 min
- BLADDER CONTRACTIONS quiescence time ([3]; 300 μg/kg i.v.): 4.48 ± 1.31 min
- BLADDER CONTRACTIONS quiescence time ([3]; 1000 μg/kg i.v.): 4.65 ± 2.11 min
- activity as inhibitors of isovolumic voiding contractions (in words) [3]: inactive
- ED10min (extrapolated dose inducing 10 min of bladder quiescence) [3]: >1 mg/kg
- displacement of specific binding of [3H]LY341495 to Group II receptors (in words) [5]: displaced with high affinity
- Ki [5]: 0.004 µM

Structure (SMILES): Cc1cc(C(=O)O)ccc1[C@H](N)C(=O)O [LY 367385]
- displacement of [3H]quisqualic acid from its binding sites (in words) [1]: significantly displaced
- Ki [1]: 6 µM
- BLADDER CONTRACTIONS quiescence time ([3]; 3000 μg/kg i.v.): 1.00 ± 0.29 min
- BLADDER CONTRACTIONS quiescence time ([3]; 10000 μg/kg i.v.): 1.95 ± 0.30 min
- activity as inhibitors of isovolumic voiding contractions (in words) [3]: inactive
- ED10min (extrapolated dose inducing 10 min of bladder quiescence) [3]: >10 mg/kg
- IC50 [4]: > 100 µM
- Ki [5]: > 1 µM
- Ki [6]: > 10 µM
- IC50 [8]: 8.8 µM

Structure (SMILES): Cc1cccc(C#Cc2ccccc2)n1 [MPEP, 2-methyl-6-(phenylethynyl)pyridine]
- bladder volume capacity (BVC) ([9]; FIG. 5): effective in antagonizing the reduction of the bladder volume capacity
- micturition pressure (MP) ([9]; FIG. 6): no effect on the micturition pressure
- Ki [1]: > 10 µM
- IC50 [2]: > 100 µM
- BLADDER CONTRACTIONS quiescence time ([3]; 30 μg/kg i.v.): 3.90 ± 1.37 min
- BLADDER CONTRACTIONS quiescence time ([3]; 100 μg/kg i.v.): 7.09 ± 1.04 min
- BLADDER CONTRACTIONS quiescence time ([3]; 300 μg/kg i.v.): 12.64 ± 1.72 min
- BLADDER CONTRACTIONS quiescence time ([3]; 1000 μg/kg i.v.): 22.46 ± 5.35 min
- activity as inhibitors of isovolumic voiding contractions (in words) [3]: active
- ED10min (extrapolated dose inducing 10 min of bladder quiescence) [3]: 0.15 mg/kg
- Ki [5]: > 1 µM
- inhibition of the specific binding of [3H]MPEP to mGlu5 receptor (in words) [6]: most potent inhibitors
- IC50 [10]: > 100 µM
- IC50 [11]: > 100 µM
- bladder volume capacity (BVC) ([12]; 10 mg/kg i.v., vs basal values and vs control group, FIG. 1): significant increases in BVC
- bladder volume capacity (BVC) ([12]; 3 and 10 mg/kg i.v., FIG. 1): effective in increasing the bladder volume capacity
- micturition pressure (MP) ([12]; i.v., MPEP 3 and 10 mg/kg, SIB 1893 50 mg/kg, FIG. 2): only mild effects on the micturition pressure
- bladder volume capacity (BVC) ([12]; oral, 3-10 and 30 mg/kg, effect at 10 mg/kg or higher, FIG. 3): significant and dose-dependent increases in the BVC
- micturition pressure (MP) ([12]; oral, 10 and 30 mg/kg, vs control group, FIG. 4): significantly reduced the MP
- IC50 [8]: > 100 µM
- IC50 ([7]; literature, functional models): > 100 µM
- IC50 [13]: > 100 µM
